Laboratory results as given in patent US6436915B1, “Pyrazole compounds” (Kinetek Pharmaceuticals, Inc., priority 2000, dated 2002).

The compounds below were run against T1, integrin linked kinase (Homo sapiens, UniProt Q13418) (assay: In vitro kinase inhibition assay, integrin linked kinase (radioactive phosphate incorporation, scintillation counting)). Conditions: full-length recombinant ILK expressed in insect cells; substrate CKRRRLASLR-amide; 15 min at room temperature.
T1 construct: The target integrin linked kinase is a full-length recombinant protein expressed in sF9 insect cells by baculovirus infection; GST (N); made in house; host or cells: Baculovirus; virus made in Sf9 cells, litre-scale expression in Hi5 insect cells
T1 sequence (Q13418 1-452): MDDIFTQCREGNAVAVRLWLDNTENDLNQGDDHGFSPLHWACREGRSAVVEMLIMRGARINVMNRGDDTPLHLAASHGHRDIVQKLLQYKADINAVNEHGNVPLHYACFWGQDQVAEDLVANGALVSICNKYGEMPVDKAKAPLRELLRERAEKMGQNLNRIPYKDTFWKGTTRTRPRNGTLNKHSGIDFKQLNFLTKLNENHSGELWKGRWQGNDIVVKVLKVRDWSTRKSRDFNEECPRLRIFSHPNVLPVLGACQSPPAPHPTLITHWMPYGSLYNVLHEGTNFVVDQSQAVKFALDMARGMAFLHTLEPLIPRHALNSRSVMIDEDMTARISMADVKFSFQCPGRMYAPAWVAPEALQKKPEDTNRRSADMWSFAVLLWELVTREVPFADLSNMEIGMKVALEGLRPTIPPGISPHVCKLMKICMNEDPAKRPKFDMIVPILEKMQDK
Format: biochemical
Method: Compounds were screened using a series of disease related kinase targets, such as integrin linked kinase-1. Synthesized libraries of compounds are tested against each of the targets to find compounds that inhibit one of the targets preferentially. The desired in vitro potency of the inhibitor is such that the compound is useful as a therapeutic agent, i.e. in the nanomolar or micromolar range.
Inhibition of the targets is measured by scintillation counting; the incorporation of radioactive phosphate onto a specific substrate which is immobilized onto a filter paper at the end of the assay. To provide meaningful measurements of inhibition, the assays are performed both in the absence and presence of specific and known inhibitors, and the amount of incorporated radioactivity is compared to provide a baseline measurement.
The baseline activity is the amount of radioactivity incorporated in the absence of inhibitor. The amount of radioactivity incorporated in the presence of an inhibitor is called the ‘sample activity’, and the % inhibition is expressed by the following formula:
% inhibition=100−sample activity/baseline activity*100)
and is usually expressed in conjunction with the compound concentration. By using a range of inhibitor concentrations, the IC50 of an inhibitor is estimated (i.e. the concentration at which enzymatic activity is reduced by 50%).
Inhibition Assay: Compounds listed in Table 1 were lyophilized and stored at −20° C. Stock solutions were made by weighing out the compounds and dissolving them in dimethyl sulfoxide (DMSO) to a standard concentration, usually 20 mM, and stored at −20° C. The compounds were diluted to a starting intermediate concentration of 250 μM in 1% DMSO, then serially diluted across a row of a 96 well plate using serial 2 fold dilution steps. Diluted 100% DMSO was used as a negative control. 5 μl of each compound dilution were robotically pipetted to Costar serocluster plates maintaining the same plate format. All assays consisted of the following volumes:
and were then incubated 15 min at room temperature.
From each reaction, 10 μl of reaction mix was spotted onto Millipore Multiscreen-PH opaque plates and washed 2×10 min in 1% phosphoric acid. The plates were dried for at 40° C. for 30 min, then the substrate phosphate complexes were quantitated by scintillation counting. These Millipore plates are in a 96 well format with immobilized P81 phosphocellulose membranes. Both the phosphorylated and non-phosphorylated form of the substrate bind to the membrane while ATP (unincorporated phosphate) is removed in the subsequent wash steps.
Integrin Linked Kinase: The target integrin linked kinase is a full-length recombinant protein expressed in sF9 insect cells by baculovirus infection. The ILK1 substrate is CKRRRLASLR-amide.
Recombinant ILK protein was expressed using cultured insect cells and a baculovirus expression system. Standard techniques for DNA manipulation were used to produce recombinant DNA molecules and baculoviruses (Sambrook. J., Fritsch, E. F. and Maniatis, T. 1989. Molecular cloning, a laboratory manual. Second edition. Cold Spring Harbor Laboratory Press. NY; Crossen, R. and Gruenwald, S. 1998. Baculovirus expression Vector System Manual. 5th Edition. Pharmingen, San Diego, Calif.) but the isolation of active ILK required some ingenuity.
The ILK open reading frame (Hannigan et al., supra.), excluding the 5′ and 3′ untranslated regions, was inserted into the baculovirus transfer vector pAcG2T (Pharmingen) to produce a GST fusion protein under the control of the strong AcNPV polyhedrin promoter. A large scale plasmid preparation of the resulting transfer construct was made using a Qiagen Plasmid Midi Kit. This ILK transfer construct was then co-transfected with BaculoGold DNA (Pharmingen) into Sf9 insect cells (Invitrogen) and a high titre preparation of GST-ILK recombinant baculovirus was produced by amplification in Sf9 cells. […]

Going from `COc1ccc(N/N=C2/C(=N)NN=C2N)cc1` [KP-15792, 3,5-diamino-4-(p-methoxyphenyl)hydrazonopyrazole] to `N=C1NN=C(N)/C1=N/Nc1ccccc1` [KP-23194, 3,5-diamino-4-phenylhydrazonopyrazole], the IC50 falls from 1 µM to 0.6 µM (1.7-fold).

First: Cc1ccc(NN=C2C(N)=NN=C2N)cc1 [KP-23195, 3,5-diamino-4-(p-methylphenyl)hydrazonopyrazole]
Second: NC1=NN=C(N)C1=NNc1ccc(O)cc1 [KP-27389, 3,5-diamino-4-(p-hydroxyphenyl)hydrazonopyrazole]
The IC50 of the first is lower: 5.3 µM for the first, over 20 µM for the second. The first is the more potent here.

Compared with `COc1ccc(NN=C2C(N)=NN=C2N)cc1O` [KP-23197, 3,5-diamino-4-(3-hydroxy-4-methoxyphenyl)hydrazonopyrazole], `NC1=NN=C(N)C1=NNc1ccc(Cl)cc1` [KP-27390, 3,5-diamino-4-(p-chlorophenyl)hydrazonopyrazole] is 3.3-fold lower in IC50: 4 µM for the first, 1.2 µM for the second.

First: NC1=NNC(=O)C1/N=N/c1ccccc1 (stereo not shown) [KP-23198, 3-amino-4-phenylazo-2-pyrazolin-5-one]
Second: Cc1ccc(/N=N/C2C(=O)NN=C2N)cc1 (stereo not shown) [KP-23199, 3-amino-4-(p-methylphenylazo)-2-pyrazolin-5-one]
The IC50 of the first is lower: 17.1 µM for the first, over 20 µM for the second. The first is the more potent here.

First: COc1ccc(/N=N/C2C(=O)NN=C2N)cc1 (stereo not shown) [KP-23200, 3-amino-4-(p-methoxyphenylazo)-2-pyrazolin-5-one]
Second: COc1ccc(/N=N/C2C(=O)NN=C2N)cc1O (stereo not shown) [KP-23201, 3-amino-4-(3-hydroxy-4-methyoxyphenylazo)-2-pyrazolin-5-one]
The IC50 of the first is higher: over 20 µM for the first, 18 µM for the second.

`O=C1NNC(=O)C1=NNc1ccccc1` [KP-23202, 4-phenylhydrazonopyrazolin-3,5-dione] and `Cc1ccc(NN=C2C(=O)NNC2=O)cc1` [KP-23203, 4-(p-methylphenyl)hydrazonopyrazolin-3,5-dione] cannot be ordered by IC50: over 20 µM for the first, over 20 µM for the second.

`COc1ccc(NN=C2C(=O)NNC2=O)cc1` [KP-23204, 4-(p-methoxyphenyl)hydrazonopyrazolin-3,5-dione] and `COc1ccc(NN=C2C(=O)NNC2=O)cc1O` [KP-23205, 4-(3-hydroxy-4-methyoxyphenyl)hydrazonopyrazolin-3,5-dione] cannot be ordered by IC50: over 20 µM for the first, over 20 µM for the second.

First: NC1=NN=C(N)C1=NNc1ccc(S(=O)(=O)O)cc1 [KP-27288, 4-[N′-(3,5-diaminopyrazole-4-ylidene)hydrazino]benzenesulfonic acid]
Second: NC1=NN=C(N)C1=NNc1ccc(C(=O)O)cc1 [KP-27388, 4-[N′-(3,5-diaminopyrazol-4-ylidene)hydrazino]benzoic acid]
The IC50 of the first is higher: over 20 µM for the first, 13 µM for the second.

`NC1=NN=C(N)C1=NNN1CCOCC1` [KP-27289, 3,5-diamino-4-morpholinylhydrazonopyrazole] and `NC1=NN=C(N)C1=NNCCN1CCOCC1` [KP-27290, 3,5-diamino-4-(2-morpholinylethyl)hydrazonopyrazole] are within 1.5-fold of each other in IC50: 9.6 µM for the first, 8.2 µM for the second.

First: NC1=NN=C(N)C1=NNc1ncc[nH]1 [KP-27291, 3,5-diamino-4-(2-imidazolyl)hydrazonopyrazole]
Second: NC1=NN=C(N)C1=NNc1nccs1 [KP-27293, 3,5-diamino-4-(2-thiazolyl)hydrazonopyrazole]
The IC50 of the first is 31-fold higher: 28 µM for the first, 0.9 µM for the second.

First: NC1=NN=C(N)C1=NNc1cc[nH]n1 [KP-27292, 3,5-diamino-4-(3-pyrazolyl)hydrazonopyrazole]
Second: NC1=NN=C(N)C1=NNc1nccnn1 [KP-27387, 3,5-diamino-4-(3-[1,2,4]triazinyl)hydrazonopyrazole]
The IC50 of the first is lower: 8 µM for the first, over 20 µM for the second.

Compared with `NC1=NN=C(N)C1=NNc1cccc2ccccc12` [KP-27294, 3,5-diamino-4-(1-naphthyl)hydrazonopyrazole], `NC1=NN=C(N)C1=NNc1c(O)ccc2ccccc12` [KP-27393, 3,5-diamino-4-(2-hydroxynaphthyl)hydrazonopyrazole] is 5-fold higher in IC50: 0.6 µM for the first, 3 µM for the second. The first is the more potent here.

First: NC1=NN=C(N)C1=NNc1ccc(S(=O)(=O)O)c2ccccc12 [KP-27295, 4-[N′-(3,5-Diaminopyrazol-4-ylidene)hydrazino]naphthalene-1-sulfonic acid]
Second: CC(=O)Nc1ccc(NN=C2C(N)=NN=C2N)cc1 [KP-27392, 3,5-diamino-4-(p-acetoaminophenyl)hydrazonopyrazole]
The IC50 of the first is 3.9-fold higher: 19.3 µM for the first, 5 µM for the second. The second is the more potent here.

In the case of `NC1=NN=C(N)C1=NNCC1CCNCC1` [KP-27386, 3,5-diamino-4-(4-piperidinylmethyl)hydrazonopyrazole], the IC50 is reported as 13 µM.

What follows are compounds tested on Lewis Lung Carcinoma cells (assay: Anti-tumor activity in a murine model using Lewis Lung Carcinoma cells (FIG. 1)). Conditions: FIG. 1 legend only.
Format: in vivo

For `COc1ccc(N/N=C2/C(=N)NN=C2N)cc1` [KP-15792, 3,5-diamino-4-(p-methoxyphenyl)hydrazonopyrazole], the anti-tumor activity was “anti-tumor activity”.
